In US4229435A, “Preparation of blood fraction” (priority 1978, dated 1980):

What was measured:
Format in all cases: biochemical
[1] = system: factor IX; assay: Selective decrease of coagulation activity at low temperature (Example 7); details: 0.2 mg DTT per ml plasma, 22° C.
Protocol: By addition of reducing agent, e.g. 0.2 mg DTT per ml plasma, at a low temperature, e.g. 22° C., it is possible to selectively influence the decrease of the coagulation activity in the different factors.

[2] = target: T1, F VII (Homo sapiens, UniProt P08709); assay: Coagulation factor VII activity in plasma after reducing agent + iodoacetic acid; details: 5 min 37° C., then iodoacetic acid
T1 construct: from tissue; host or cells: human citrated blood plasma
T1 sequence (P08709 61-466): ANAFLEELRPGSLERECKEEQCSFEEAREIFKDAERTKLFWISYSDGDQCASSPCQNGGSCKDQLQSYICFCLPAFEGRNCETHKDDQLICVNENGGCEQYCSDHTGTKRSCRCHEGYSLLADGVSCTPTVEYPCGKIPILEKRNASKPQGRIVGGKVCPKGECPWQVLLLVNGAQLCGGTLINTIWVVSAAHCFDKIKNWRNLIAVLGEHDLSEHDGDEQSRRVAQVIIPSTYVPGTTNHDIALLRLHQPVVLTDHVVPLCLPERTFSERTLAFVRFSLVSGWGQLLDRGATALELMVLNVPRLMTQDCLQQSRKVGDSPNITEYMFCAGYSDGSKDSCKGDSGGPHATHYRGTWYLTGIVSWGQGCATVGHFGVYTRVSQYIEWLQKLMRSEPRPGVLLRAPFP
Protocol: (§1) Human blood with anti-coagulating agent (9 parts blood+1 part 3.8% trisodium citrate) is centrifuged and the following tests with plasma were carried out:
(§2) The plasma is divided into 8 ml portions, which are preheated at 37° C. for 5 min. DTT is added in different concentrations, see table 1 below, and is incubated for 5 min. at 37° C. Then iodoacetic acid, 3 mol per mol DTT, is added, and incubation takes place for 15 min. at 37° C. The plasma samples are distributed in portions of about 0.2 ml and are immediately frozen at -70° C. Testing of different coagulation factors is made in known manner.
(§3) The plasma is divided into 8 ml portions, which are preheated at 37° C. for 5 min. DTE is added in different concentrations (see table 2), and is incubated for 5 minutes at 37° C. Then, iodoacetic acid (3 mol per mol DTE) is added and incubation is carried out for 15 minutes at 37° C. The plasma samples are distributed in portions of about 0.2 ml and are immediately frozen at -70° C. Testing of different coagulation factors is made in a manner known per se.
(§4) The plasma is divided into 8 ml portions, which are preheated at 37° C. for 5 minutes. Lipoic acid is added in different concentrations (see table 3), and is incubated for 5 minutes at 37° C. Then, iodoacetic acid (3 mol per mol lipoic acid) is added and incubation is carried out for 15 minutes at 37° C. The plasma samples are distributed in portions of about 0.2 ml and are immediately frozen at -70° C. Testing of different coagulation factors is made in a manner known per se.
(§5) The plasma is divided into 8 ml portions, which are preheated at 37° C. for 5 minutes. Mercaptoethanol is added in different concentrations (see table 4), and is incubated for 5 minutes at 37° C. Then, iodoacetic acid (3 mol per mol mercaptoethanol) is added and incubation is carried out for 15 minutes at 37° C. The plasma samples are distributed in portions of about 0.2 ml and are immediately frozen at -70° C. Testing of different coagulation factors is made in a manner known per se.
(§6) The plasma is divided into 8 ml portions, which are preheated at 37° C. for 5 minutes. Potassium borohydride is added in different concentrations (see table 5, and is incubated for 5 minutes at 37° C. Then, iodoacetic acid (3 mol per mol potassium borohydride) is added and incubation is carried out for 15 minutes at 37° C. The plasma samples are distributed in portions of about 0.2 ml and are immediately frozen at -70° C. Testing of different coagulation factors is made in a manner known per se.

[3] = target: T2, F XII (Homo sapiens, UniProt P00748); assay: Coagulation factor XII activity in plasma after reducing agent + iodoacetic acid; details: 5 min 37° C., then iodoacetic acid
T2 construct: from tissue; host or cells: human citrated blood plasma
T2 sequence (P00748 20-615): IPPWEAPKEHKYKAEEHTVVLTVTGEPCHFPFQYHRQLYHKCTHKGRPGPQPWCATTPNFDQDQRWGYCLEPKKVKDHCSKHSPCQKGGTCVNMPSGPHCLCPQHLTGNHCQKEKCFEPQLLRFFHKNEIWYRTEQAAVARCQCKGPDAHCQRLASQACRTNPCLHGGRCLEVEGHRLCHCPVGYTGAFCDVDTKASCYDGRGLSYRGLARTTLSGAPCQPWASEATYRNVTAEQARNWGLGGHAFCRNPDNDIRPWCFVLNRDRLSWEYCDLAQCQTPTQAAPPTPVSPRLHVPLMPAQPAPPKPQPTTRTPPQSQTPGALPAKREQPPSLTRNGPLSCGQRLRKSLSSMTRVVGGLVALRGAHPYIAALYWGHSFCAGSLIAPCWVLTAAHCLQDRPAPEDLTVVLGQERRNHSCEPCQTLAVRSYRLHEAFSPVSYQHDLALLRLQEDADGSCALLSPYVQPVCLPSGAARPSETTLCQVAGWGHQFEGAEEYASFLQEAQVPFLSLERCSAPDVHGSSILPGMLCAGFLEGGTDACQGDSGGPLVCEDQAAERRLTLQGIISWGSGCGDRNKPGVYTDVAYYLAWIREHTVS
Protocol: as §1, §2, §3, §4, §5, §6

[4] = system: coagulation factors VII, IX, X, XI and XII; assay: Effect of reducing substance added to blood or plasma on coagulation factors; details: addition to blood
[5] = human, 0.1 mg reducing agent/ml plasma (sample C)
[6] = human, 0.6 mg reducing agent/ml plasma
[7] = human, Table 1 sample D, 0.1 mg DTT/ml plasma
[8] = plasma + 0.14 mg reducing agent
[9] = plasma + 0.28 mg reducing agent

| SMILES | activity of factor IX compared with factor X [1] | activity at 100 µg/mL [2, 5] [%] | activity at 600 µg/mL [2, 6] [%] | activity at 100 µg/mL [2, 7] [%] | Coagulation factor F VII ([2]; plasma + 0.4 mg reducing agent) | activity at 100 µg/mL [3, 5] [%] | activity at 600 µg/mL [3, 6] [%] | activity at 100 µg/mL [3, 7] [%] | Coagulation factor F XII ([3]; plasma + 0.4 mg reducing agent) | content of coagulation factors VII, IX, X, XI and XII in the resulting plasma [4] | Coagulation factor F VII [2, 8] | Coagulation factor F VII [2, 9] | Coagulation factor F XII [3, 8] | Coagulation factor F XII [3, 9] | Coagulation factor F VII ([2]; plasma + 0.2 mg reducing agent) | Coagulation factor F XII ([3]; plasma + 0.2 mg reducing agent) |
| --- | --- | --- | --- | --- | --- | --- | --- | --- | --- | --- | --- | --- | --- | --- | --- | --- |
| O[C@H](CS)[C@H](O)CS [DTT, dithiothreitol] | the activity of factor IX is not influenced in as high a degree as the activity of factor X | 87 | 0 | 21 | 6 % of control | 78 | 0 | 18 | 0 % of control | reduces the content of the coagulation factors VII, IX, X, XI and XII to a large extent | – | – | – | – | – | – |
| [BH4-].[K+] [KBH4, potassium borohydride] | – | – | – | – | – | – | – | – | – | – | 131 % of control | 127 % of control | 86 % of control | 83 % of control | – | – |
| O=C(O)CCCCC1CCSS1 (stereo not drawn) [lipoic acid] | – | 252 | – | – | 285 % of control | 74 | – | – | 98 % of control | – | – | – | – | – | 203 % of control | 78 % of control |
| O[C@H](CS)[C@@H](O)CS [DTE, dithioerythritol] | – | 61 | – | – | 48 % of control | 78 | – | – | 0 % of control | – | – | – | – | – | 30 % of control | 1 % of control |
| OCCS [mercaptoethanol] | – | – | – | – | 29 % of control | – | – | – | 121 % of control | – | – | – | – | – | 69 % of control | 102 % of control |
